# Results taken from article PMC8611796, “Defining natural factors that stimulate and inhibit cellulose:xyloglucan hetero‐transglucosylation” (The Plant Journal, 2021).
# Key:
# Type in all cases: biochemical
# [1] = target: T1, EfHTG (Equisetum fluviatile hetero-trans-beta-glucanase) (Equisetum fluviatile, UniProt A0A0K2WA62); assay: radiochemical CXE and MXE assay, [3H]XXXGol incorporation; conditions: cellulose or MLG donor, succinate pH 5.5, 20 C, 24 h
# T1 construct: gene HTG; secreted by Pichia pastoris SMD1168H; culture filtrate used; made as in Simmons et al. 2015
# T1 sequence (A0A0K2WA62 22-280): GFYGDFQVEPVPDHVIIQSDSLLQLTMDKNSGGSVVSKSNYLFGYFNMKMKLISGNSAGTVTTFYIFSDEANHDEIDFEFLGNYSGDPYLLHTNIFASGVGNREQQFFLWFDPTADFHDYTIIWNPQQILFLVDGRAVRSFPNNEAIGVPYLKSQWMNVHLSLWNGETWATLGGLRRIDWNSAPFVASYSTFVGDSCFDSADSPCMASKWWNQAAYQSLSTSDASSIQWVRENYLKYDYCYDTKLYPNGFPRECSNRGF
# [2] = target: T1, EfHTG (Equisetum fluviatile hetero-trans-beta-glucanase); assay: radiochemical transglucosylase assay (XET, MXE, CXE); conditions: acceptor substrate; labelled compound; xyloglucan, MLG or cellulose donor; pH 5.5
# [3] = target: T1, EfHTG (Equisetum fluviatile hetero-trans-beta-glucanase); assay: radiochemical CXE assay, [3H]XXXGol incorporation; conditions: read-out: % inhibition at 0.3 mM
Compound,% inhibition ([1]; [3H]XXXGol acceptor),also measured
OC[C@H]1O[C@@H](O[C@H]2[C@H](O)[C@@H](O)C(O)O[C@@H]2CO)[C@H](O)[C@@H](O)[C@@H]1O (stereo partly shown) [cellobiose],,"% inhibition ([1]; 0.01-80 mM inhibitor, [3H]XXXGol or [3H]XyG acceptor): Cellobiose inhibited EfHTG’s CXE activity equally whether [^3H]XXXGol or polymeric [^3H]XyG was the acceptor"
OC[C@H]1O[C@@H](O[C@H]2[C@H](O)[C@@H](O)[C@H](O[C@H]3[C@H](O)[C@@H](O)[C@H](O[C@H]4[C@H](O)[C@@H](O)[C@H](O[C@H]5[C@H](O)[C@@H](O)C(O)O[C@@H]5CO)O[C@@H]4CO)O[C@@H]3CO)O[C@@H]2CO)[C@H](O)[C@@H](O)[C@@H]1O (stereo partly shown) [cellopentaose],We found that cello‐oligosaccharides (C2–C6) are efficient inhibitors of Equisetum HTG,
OC[C@H]1O[C@@H](O[C@H]2[C@H](O)[C@@H](O)[C@H](O[C@H]3[C@H](O)[C@@H](O)[C@H](O[C@H]4[C@H](O)[C@@H](O)C(O)O[C@@H]4CO)O[C@@H]3CO)O[C@@H]2CO)[C@H](O)[C@@H](O)[C@@H]1O (stereo partly shown) [cellotetraose],We found that cello‐oligosaccharides (C2–C6) are efficient inhibitors of Equisetum HTG,
OC[C@@H](O)[C@@H](O[C@@H]1O[C@H](CO[C@H]2OC[C@@H](O)[C@H](O)[C@H]2O)[C@@H](O[C@@H]2O[C@H](CO[C@H]3OC[C@@H](O)[C@H](O)[C@H]3O)[C@@H](O[C@@H]3O[C@H](CO[C@H]4OC[C@@H](O)[C@H](O)[C@H]4O)[C@@H](O)[C@H](O)[C@H]3O)[C@H](O)[C@H]2O)[C@H](O)[C@H]1O)[C@H](O)[C@@H](O)CO [[3H]XXXGol],,"radiochemical transglucosylase assay (XET, MXE, CXE) [2]: albeit at lower rates than onto the oligosaccharide [^3H]XXXGol"
OC[C@H]1O[C@@H](O[C@H]2[C@H](O)[C@@H](O)[C@H](O[C@H]3[C@H](O)[C@@H](O)C(O)O[C@@H]3CO)O[C@@H]2CO)[C@H](O)[C@@H](O)[C@@H]1O (stereo partly shown) [cellotriose],We found that cello‐oligosaccharides (C2–C6) are efficient inhibitors of Equisetum HTG,
CCCCN1C[C@H](O)[C@@H](O)[C@H](O)[C@H]1CO [N-butyldeoxynojirimycin],,inhibition at 300 µM [3]: ~50%
OC[C@H]1O[C@@H](O[C@H]2[C@H](O)[C@@H](O)[C@H](O[C@H]3[C@H](O)[C@@H](O)[C@H](O[C@H]4[C@H](O)[C@@H](O)[C@H](O[C@H]5[C@H](O)[C@@H](O)[C@H](O[C@H]6[C@H](O)[C@@H](O)C(O)O[C@@H]6CO)O[C@@H]5CO)O[C@@H]4CO)O[C@@H]3CO)O[C@@H]2CO)[C@H](O)[C@@H](O)[C@@H]1O (stereo partly shown) [cellohexaose],We found that cello‐oligosaccharides (C2–C6) are efficient inhibitors of Equisetum HTG,
